Results published in patent EP4653435A1, “PRMT5-MTA INHIBITOR” (Suzhou Puhe Biopharma Co., Ltd., priority 2023, dated 2024).
One block for each molecule: values may come before it.

Assays:
[1] = Liver microsomal stability assay, human
Description: (§4) The compounds to be tested were co-incubated with liver microsomes of different species with or without the addition of NADPH. The final concentration of the test compounds in the test system was 1 µM, the final concentration of NADPH was 1 mM, and the final concentration of liver microsomes was 0.5 mg/mL.

[2] = Mouse pharmacokinetics testing; type: in vivo, CD1 female mice; conditions: in vivo
Description: CD1 female mice were used as test animals and administered the compounds orally/intravenously (oral dosage was 10 mg/kg and intravenous dosage was 2 mg/kg). Test protocol: Each oral and intravenous group consisted of three mice. […] Plasma drug concentrations after oral and intravenous administration were determined by LC/MS/MS, and the collected data analyzed using AB Sciex QTRAP 6500 software.

HCT116-MTAPwt = test: 2D antiproliferative assay (CTG cell viability), wild-type cells; type: cell-based; conditions: Homo sapiens, HCT-116, 7-10 days
Description: (§1) HCT116 wild-type and MTAP-deficient cells were cultured in McCoy's 5A medium containing 10% FBS and 1% penicillin-streptomycin, and cultured in a 37°C, 5% CO2 constant temperature incubator. 40 µL of cell suspension was introduced into each well of a 384-well microplate. 40 nL of different concentrations of test compounds were added to each well using an Echo, before culturing in a 37°C, 5% CO2 constant temperature incubator for 7-10 days. 40 µL of CTG solution (Promega, Cat No. G7573) was added to each well and incubated in a 37°C, 5% CO2 constant temperature incubator for 30 minutes in the dark.

HCT116-MTAPdel = test: 2D antiproliferative assay (CTG cell viability), MTAP-deficient cells; type: cell-based; conditions: for IC50: Homo sapiens, HCT-116, HCT116 MTAP-deficient cells, 7-10 days, CTG, read-out: HCT116-MTAPdel/IC50/nM; for HCT116WT IMTAPdel selectivity: ratio IC50 wild type / MTAPdel, antiproliferation
Description: as §1

[3] = Liver microsomal stability assay, mouse; type: in vitro ADME; conditions: mouse liver microsomes 0.5 mg/mL, compound 1 µM, NADPH 1 mM, 60 minute
Description: as §4

[4] = Membrane permeability: Caco-2 assay; type: in vitro ADME; conditions: human; Caco-2, apical pH 6.5, basolateral pH 7.4
Description: The membrane permeability of the molecules of the invention was evaluated. […] Efflux Ratio = Papp(B−A) /Papp(A−B) [formula]

in vitro = conditions: dog, MDCK-MDR1, pH 7.4
Description: (§2) The membrane permeability of the molecules of the present invention was evaluated to predict their permeability to the brain.
(§3) The specific procedure was: 1. MDCK-MDR1 cells were pre-cultured at a density of 1.56*10^6 cells/mL in a 96-well plate at 37°C for 7 days. 2. The MDCKII-MDR1 plate was taken out of the incubator, rinsed twice with pre-warmed HBSS (10 mM HEPES, pH 7.4), and then incubated at 37°C for 30 minutes. 3. The stock solution of the compound to be tested was diluted with DMSO to obtain a 0.2 mM solution, and then diluted with HBSS (10 mM HEPES, pH 7.4) to obtain a 1 µM working solution. A blank control group was also diluted with DMSO to obtain a 0.2 mM solution, and then diluted with HBSS (10 mM HEPES, pH 7.4) to obtain a 1 µM working solution. The final concentration of DMSO in the culture system was 0.5%. 4. The transport rate of the drug in the apical to basolateral direction was determined: 125 µL of the 1 µM test compound solution was added to a Transwell insert (top compartment), before immediately transferring a 50 µL sample (D0 sample) from the top comparment to a new 96-well plate. The receiving plate wells (basolateral compartment) were filled with 235 µL HBSS (10 mM HEPES, pH 7.4) and incubated at 37°C for 2 hours. 5. Upon completion of the incubation, 50 µL samples were transferred from the donor and acceptor sides to the wells of a new 96-well plate, before adding 4 volumes of cold acetonitrile containing an appropriate internal standard (IS). Prior to LC-MS/MS analysis, 100 µL of the supernatant was taken and mixed with an appropriate volume of ultrapure water. Papp = (VA×[drug]acceptor)/(Area×Time×[drug]initial,donor) [formula] where VA is the volume of the receptor pores (unit:mL), Area is the surface area of the membrane (0.143 cm^2 for a Transwell-96 well permeable support), and time is the total transport time in seconds. Efflux Ratio = Papp(B−A) /Papp(A−B) [formula]

MDR1 (P-gp) = test: in vitro; conditions: dog, MDCK-MDR1, pH 7.4
Description: as §2, §3

[5] = female, CD1, mouse, iv, 2 mg/kg
[6] = female, CD1, mouse, po, 10 mg/kg

SMILES: C[C@H](c1ncccn1)N(Cc1ccc(C(F)(F)F)cn1)C(=O)C(=O)Nc1cnc(N)c2c1cnn2C [Compound P1]
CLint scaled at 1 h, 1 µM ([1]; microsomes): 18 mL/min/kg
CLint scaled at 1 h, 1 µM [3]: 177 mL/min/kg
IC50 (HCT116-MTAPwt): 196 nM
IC50 (HCT116-MTAPdel): 9 nM
HCT116WT IMTAPdel selectivity (HCT116-MTAPdel): 22

SMILES: C[C@@H]1CC[C@@H](c2ccc3scnc3c2)N(C(=O)C(=O)Nc2cnc(N)c3c2cnn3C)C1 (racemic) [Compound P3]
CLint scaled at 1 h, 1 µM ([1]; liver microsomes): 23.9 mL/min/kg
Papp A→B [4]: 2.66 ×10⁻⁶ cm/s
Papp B→A [4]: 34.2 ×10⁻⁶ cm/s
IC50 (HCT116-MTAPwt): 827 nM
IC50 (HCT116-MTAPdel): 13 nM

SMILES: CCN(C(=O)C(=O)Nc1cnc(N)c2c1cnn2C)[C@@H]1COCc2nc(C(F)(F)F)ccc21 [Compound P28]
CLint scaled at 1 µM ([1]; liver microsomes): 4.8 mL/min/kg
Papp A→B (in vitro): 10.7 ×10⁻⁶ cm/s
Papp B→A (in vitro): 34 ×10⁻⁶ cm/s
efflux ratio (MDR1 (P-gp)): 3.2
IC50 (HCT116-MTAPwt): 1190 nM
IC50 (HCT116-MTAPdel): 10 nM
HCT116WT IMTAPdel selectivity (HCT116-MTAPdel): 119

More lines, main results first:

CLint scaled at 1 µM ([1]; liver microsomes): 9.4 mL/min/kg
F ([2]; female, CD1, mouse): 74%
AUC(0-t) [2, 5]: 1410 ng·h/mL
C0 [2, 5]: 1070 ng/mL
clearance [2, 5]: 23 mL/min/kg
half-life [2, 5]: 2 h
AUC(0-t) [2, 6]: 5150 ng·h/mL
Cmax [2, 6]: 1850 ng/mL
Tmax [2, 6]: 0.25 h
half-life [2, 6]: 1.5 h
IC50 (HCT116-MTAPwt): 3140 nM
IC50 (HCT116-MTAPdel): 13 nM
SMILES: CN(C(=O)C(=O)Nc1cnc(N)c2c1cnn2C)C1COc2cc(OC(F)(F)F)ccc21 (centres unmarked) [Compound P30]
HCT116WT IMTAPdel selectivity (HCT116-MTAPdel): 241

CLint scaled at 1 h, 1 µM ([1]; microsomes): 20 mL/min/kg
F ([2]; mouse): 59%
AUC(0-t) at 24 h ([2]; mouse, iv, 2 mg/kg): 1480 ng·h/mL
C0 ([2]; mouse, iv, 2 mg/kg): 1210 ng/mL
clearance ([2]; mouse, iv, 2 mg/kg): 21.5 mL/min/kg
half-life ([2]; mouse, iv, 2 mg/kg): 2.1 h
AUC(0-t) at 24 h ([2]; mouse, po, 10 mg/kg): 4390 ng·h/mL
Cmax ([2]; mouse, po, 10 mg/kg): 1100 ng/mL
Tmax ([2]; mouse, po, 10 mg/kg): 0.5 h
half-life ([2]; mouse, po, 10 mg/kg): 6.8 h
CLint scaled at 1 h, 1 µM [3]: 110 mL/min/kg
IC50 (HCT116-MTAPwt): 1080 nM
IC50 (HCT116-MTAPdel): 6 nM
SMILES: CCN(C(=O)C(=O)Nc1cnc(N)c2c1cnn2C)[C@@H]1COc2cc(C(F)(F)F)ccc21 [Compound P19a]
HCT116WT IMTAPdel selectivity (HCT116-MTAPdel): 181
